ChEMBL document CHEMBL3286108, “Novel arylsulfonamide derivatives with 5-HT₆/5-HT₇ receptor antagonism targeting behavioral and psychological symptoms of dementia” (J Med Chem, 2014)
The source made the active and inactive calls. The calls are words filed in the database; no cut-off is given here.

Experiments:
[1] = target: Alpha-1A adrenergic receptor (Homo sapiens) (UniProt P35348); assay: Antagonist activity at human recombinant alpha1A adrenoceptor assessed as inhibition of epinephrine-induced intracellular Ca2+ release; assay type: functional, cell-based
[2] = target: T1, 5-hydroxytryptamine receptor 7 (Homo sapiens, UniProt P34969); assay: biochemical
T1 sequence (P34969 whole entry): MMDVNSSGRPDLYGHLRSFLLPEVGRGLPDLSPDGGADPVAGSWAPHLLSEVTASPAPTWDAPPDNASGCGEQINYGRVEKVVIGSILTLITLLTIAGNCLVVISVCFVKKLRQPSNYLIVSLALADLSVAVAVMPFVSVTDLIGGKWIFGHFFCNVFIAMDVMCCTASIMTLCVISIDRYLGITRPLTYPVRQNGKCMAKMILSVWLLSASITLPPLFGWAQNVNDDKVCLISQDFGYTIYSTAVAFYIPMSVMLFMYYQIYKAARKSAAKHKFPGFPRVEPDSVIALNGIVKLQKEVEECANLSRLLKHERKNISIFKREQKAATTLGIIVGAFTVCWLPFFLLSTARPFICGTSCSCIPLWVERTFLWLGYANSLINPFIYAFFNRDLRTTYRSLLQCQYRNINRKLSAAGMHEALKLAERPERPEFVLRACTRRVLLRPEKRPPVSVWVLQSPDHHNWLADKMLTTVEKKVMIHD

[3] = target: T1, 5-hydroxytryptamine receptor 7; assay: Agonist activity at human 5-HT7 receptor expressed in CHO-K1 cells assessed as cAMP accumulation after 60 mins by TR-FRET immunoassay; assay type: functional, cell-based
[4] = target: Sodium-dependent serotonin transporter (Homo sapiens, UniProt P31645); assay: biochemical
Rattus norvegicus [5] = assay: Induction of catalepsy in Wistar rat up to 100 mg/kg, po by bar test; assay type: organism-based; parameters: dose 100 mg/kg, route oral; conditions: in vivo
[6] = target: Muscarinic acetylcholine receptor M5 (Homo sapiens, UniProt P08912); assay: Displacement of [3H]4-DAMP from human recombinant M5 receptor expressed in CHO cells; assay type: cell-based
Sequence of Muscarinic acetylcholine receptor M5 (P08912 whole entry): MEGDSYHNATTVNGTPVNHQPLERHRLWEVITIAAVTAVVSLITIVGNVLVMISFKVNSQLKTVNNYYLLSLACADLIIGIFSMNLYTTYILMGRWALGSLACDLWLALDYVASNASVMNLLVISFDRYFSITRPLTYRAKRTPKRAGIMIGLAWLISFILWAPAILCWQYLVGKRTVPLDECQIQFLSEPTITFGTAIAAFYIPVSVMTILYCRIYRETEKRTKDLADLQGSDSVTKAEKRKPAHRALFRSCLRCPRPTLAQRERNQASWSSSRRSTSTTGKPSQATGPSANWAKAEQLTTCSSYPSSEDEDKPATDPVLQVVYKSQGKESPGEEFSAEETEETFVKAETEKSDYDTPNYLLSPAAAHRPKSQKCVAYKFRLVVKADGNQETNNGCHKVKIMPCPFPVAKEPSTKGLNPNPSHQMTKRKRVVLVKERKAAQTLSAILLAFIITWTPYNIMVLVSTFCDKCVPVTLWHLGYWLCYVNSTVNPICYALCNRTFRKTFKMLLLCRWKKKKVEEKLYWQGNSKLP

[7] = target: T2, 5-hydroxytryptamine receptor 6 (Homo sapiens, UniProt P50406); assay: biochemical
T2 sequence (P50406 whole entry): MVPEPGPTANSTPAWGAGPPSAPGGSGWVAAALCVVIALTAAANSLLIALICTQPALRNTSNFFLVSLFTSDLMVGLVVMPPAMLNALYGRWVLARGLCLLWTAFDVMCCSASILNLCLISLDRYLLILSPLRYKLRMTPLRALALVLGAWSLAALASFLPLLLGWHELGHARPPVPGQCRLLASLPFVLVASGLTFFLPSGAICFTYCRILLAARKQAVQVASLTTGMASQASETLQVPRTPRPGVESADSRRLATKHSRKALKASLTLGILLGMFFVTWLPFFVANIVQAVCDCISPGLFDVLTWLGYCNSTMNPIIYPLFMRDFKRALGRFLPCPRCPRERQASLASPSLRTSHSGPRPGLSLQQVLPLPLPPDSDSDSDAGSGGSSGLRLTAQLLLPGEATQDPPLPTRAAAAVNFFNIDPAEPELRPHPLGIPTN

[8] = target: T1, 5-hydroxytryptamine receptor 7; assay: biochemical; assay type: cell-based, CHO-K1
D(3) dopamine receptor = D(3) dopamine receptor (Homo sapiens, UniProt P35462); assay: Displacement of [3H]methylspiperone from human recombinant D3 receptor expressed in CHO cells; assay type: cell-based
Sequence of D(3) dopamine receptor (P35462 whole entry): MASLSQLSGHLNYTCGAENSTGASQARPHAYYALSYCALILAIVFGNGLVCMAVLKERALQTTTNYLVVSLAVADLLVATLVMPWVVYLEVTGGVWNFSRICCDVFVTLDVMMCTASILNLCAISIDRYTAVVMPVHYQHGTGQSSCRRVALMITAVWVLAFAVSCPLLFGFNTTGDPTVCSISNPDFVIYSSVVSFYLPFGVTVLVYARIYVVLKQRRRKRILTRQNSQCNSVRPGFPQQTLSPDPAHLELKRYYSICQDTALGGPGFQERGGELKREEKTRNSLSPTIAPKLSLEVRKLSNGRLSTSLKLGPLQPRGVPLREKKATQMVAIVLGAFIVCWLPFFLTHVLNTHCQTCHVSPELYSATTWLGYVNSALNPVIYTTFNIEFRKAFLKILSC

[9] = target: T2, 5-hydroxytryptamine receptor 6
Rattus norvegicus [10] = assay: Toxicity in Wistar rat assessed as spontaneous locomotor activity up to 100 mg/kg, po measured after 15 mins; assay type: organism-based; parameters: dose 100 mg/kg, route oral; conditions: in vivo, 0.25 h
[11] = target: 5-hydroxytryptamine receptor 1A (Homo sapiens, UniProt P08908); assay: biochemical
D(2) dopamine receptor [12] = target: T3, D(2) dopamine receptor (Homo sapiens, UniProt P14416); assay: Agonist activity at human recombinant D2 receptor expressed in CHO-K1 cells by luminescence analysis; assay type: cell-based
T3 sequence (P14416 whole entry): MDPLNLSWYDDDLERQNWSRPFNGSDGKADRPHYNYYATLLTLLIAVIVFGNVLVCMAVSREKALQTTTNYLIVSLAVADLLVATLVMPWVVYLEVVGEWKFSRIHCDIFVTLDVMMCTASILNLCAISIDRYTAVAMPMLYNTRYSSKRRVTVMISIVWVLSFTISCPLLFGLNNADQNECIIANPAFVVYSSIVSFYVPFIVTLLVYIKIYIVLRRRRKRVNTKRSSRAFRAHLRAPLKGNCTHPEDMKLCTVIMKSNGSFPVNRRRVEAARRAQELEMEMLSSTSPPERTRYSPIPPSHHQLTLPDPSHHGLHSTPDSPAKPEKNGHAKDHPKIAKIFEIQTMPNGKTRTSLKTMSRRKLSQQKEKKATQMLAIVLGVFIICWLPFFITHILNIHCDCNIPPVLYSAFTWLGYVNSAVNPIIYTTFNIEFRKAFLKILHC

Histamine H1 receptor = Histamine H1 receptor (Homo sapiens, UniProt P35367); assay: biochemical; assay type: cell-based, HEK293
[13] = target: Muscarinic acetylcholine receptor M4 (Homo sapiens, UniProt P08173); assay: biochemical
Rattus norvegicus [14] = assay: Antipsychotic-like activity in po dosed Wistar rat assessed as inhibition of MK-801-induced hyperlocomotion administered 45 mins prior to MK-801 challenge measured 60 mins post-drug administration; assay type: functional; conditions: read-out: MED
Rattus norvegicus [15] = assay: Antidepressant-like activity in Wistar rat assessed as decrease in immobility time at 0.3 to 3 mg/kg, po after 60 mins by forced swimming test; assay type: functional; conditions: dose mg/kg 0.3-3
[16] = target: T2, 5-hydroxytryptamine receptor 6; assay: Agonist activity at human recombinant 5-HT6 receptor expressed in CHO-K1 cells by luminescence analysis; assay type: cell-based
[17] = target: Muscarinic acetylcholine receptor M2 (Homo sapiens) (UniProt P08172); assay: Displacement of [3H]AF-DX384 from human recombinant M2 receptor expressed in CHO cells at 1 uM; assay type: cell-based
[18] = target: T4, 5-hydroxytryptamine receptor 2A (Homo sapiens, UniProt P28223); assay: biochemical
T4 sequence (P28223 whole entry): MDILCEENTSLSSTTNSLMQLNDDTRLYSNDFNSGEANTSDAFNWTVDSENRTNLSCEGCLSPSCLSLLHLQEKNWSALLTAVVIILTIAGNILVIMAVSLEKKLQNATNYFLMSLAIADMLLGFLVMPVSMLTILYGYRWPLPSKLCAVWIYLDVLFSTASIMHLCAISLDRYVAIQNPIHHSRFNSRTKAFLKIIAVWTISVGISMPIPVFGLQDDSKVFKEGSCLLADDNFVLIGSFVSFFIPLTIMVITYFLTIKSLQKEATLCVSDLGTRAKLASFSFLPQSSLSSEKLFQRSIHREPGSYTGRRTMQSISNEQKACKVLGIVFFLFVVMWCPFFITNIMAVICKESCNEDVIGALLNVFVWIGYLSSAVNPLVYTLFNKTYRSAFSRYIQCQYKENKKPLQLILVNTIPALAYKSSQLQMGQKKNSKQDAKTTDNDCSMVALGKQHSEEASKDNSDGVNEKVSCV

[19] = target: Alpha-2C adrenergic receptor (Homo sapiens, UniProt P18825); assay: biochemical
Rattus norvegicus [20] = assay: Antipsychotic-like activity in po dosed Wistar rat assessed as inhibition of DOI-induced head twitches measured after 60 mins; assay type: functional; conditions: 1 h, read-out: MED
[21] = target: T2, 5-hydroxytryptamine receptor 6; assay: Antagonist activity at human recombinant 5-HT6 receptor expressed in CHO-K1 cells assessed as inhibition of serotonin-induced response treated 15 to 30 mins before agonist challenge by luminescence analysis; assay type: cell-based
[22] = target: Alpha-1A adrenergic receptor (Homo sapiens, UniProt P35348); assay: biochemical
D(2) dopamine receptor [23] = target: T3, D(2) dopamine receptor; assay: biochemical
[24] = target: T5, Muscarinic acetylcholine receptor M3 (Homo sapiens, UniProt P20309); conditions: CHO, 1 uM
[25] = target: T4, 5-hydroxytryptamine receptor 2A; assay: Antagonist activity at human recombinant 5-HT2A receptor assessed as inhibition of serotonin-induced inositol phosphate accumulation; assay type: functional
[26] = target: T4, 5-hydroxytryptamine receptor 2A; assay: Agonist activity at human recombinant 5-HT2A receptor expressed in CHO-K1 cells by luminescence analysis; assay type: cell-based
[27] = target: Muscarinic acetylcholine receptor M4 (Homo sapiens) (UniProt P08173); assay: Displacement of [3H]4-DAMP from human recombinant M4 receptor expressed in CHO cells at 1 uM; assay type: cell-based
[28] = target: Muscarinic acetylcholine receptor M1 (Homo sapiens, UniProt P11229); assay: biochemical; assay type: cell-based, CHO
[29] = target: T6, Muscarinic acetylcholine receptor M1 (Homo sapiens) (UniProt P11229); assay: Displacement of [3H]pirenzepine from human recombinant M1 receptor expressed in CHO cells at 1 uM; assay type: cell-based
T6 sequence (whole entry): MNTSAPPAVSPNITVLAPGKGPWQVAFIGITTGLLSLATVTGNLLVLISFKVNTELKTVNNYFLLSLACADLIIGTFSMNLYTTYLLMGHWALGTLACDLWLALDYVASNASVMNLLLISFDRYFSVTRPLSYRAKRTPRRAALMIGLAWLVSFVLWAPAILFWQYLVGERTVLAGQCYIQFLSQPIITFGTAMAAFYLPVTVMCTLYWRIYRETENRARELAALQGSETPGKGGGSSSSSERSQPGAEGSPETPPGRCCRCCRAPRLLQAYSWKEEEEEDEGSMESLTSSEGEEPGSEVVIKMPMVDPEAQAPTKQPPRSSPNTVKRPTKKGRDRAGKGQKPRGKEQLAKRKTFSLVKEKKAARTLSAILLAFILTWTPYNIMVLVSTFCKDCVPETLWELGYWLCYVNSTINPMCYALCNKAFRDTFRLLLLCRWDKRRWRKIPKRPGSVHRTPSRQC

[30] = target: Muscarinic acetylcholine receptor M2 (Homo sapiens, UniProt P08172); assay: biochemical
[31] = target: T4, 5-hydroxytryptamine receptor 2A; assay: biochemical; assay type: cell-based, CHO-K1
[32] = target: Muscarinic acetylcholine receptor M5 (Homo sapiens) (UniProt P08912); conditions: CHO, 1 uM
Sequence of Muscarinic acetylcholine receptor M5 (Homo sapiens) (P08912 whole entry): as the sequence (P08912 whole entry) above

D(1A) dopamine receptor = D(1A) dopamine receptor (Homo sapiens, UniProt P21728); assay: biochemical
Sequence of D(1A) dopamine receptor (P21728 whole entry): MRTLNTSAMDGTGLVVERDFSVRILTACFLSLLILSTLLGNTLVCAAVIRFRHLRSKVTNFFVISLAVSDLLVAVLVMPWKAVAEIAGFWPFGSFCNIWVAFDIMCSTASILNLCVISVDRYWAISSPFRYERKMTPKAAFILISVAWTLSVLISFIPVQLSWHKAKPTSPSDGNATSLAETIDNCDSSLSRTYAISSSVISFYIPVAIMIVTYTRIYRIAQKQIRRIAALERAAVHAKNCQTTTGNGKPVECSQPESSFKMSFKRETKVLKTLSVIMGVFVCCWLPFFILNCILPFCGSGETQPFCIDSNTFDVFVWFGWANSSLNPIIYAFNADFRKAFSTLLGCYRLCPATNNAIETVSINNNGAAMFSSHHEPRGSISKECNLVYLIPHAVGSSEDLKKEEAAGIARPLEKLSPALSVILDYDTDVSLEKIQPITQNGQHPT

[33] = target: T2, 5-hydroxytryptamine receptor 6; assay: biochemical; remark: listed apart in the source
[34] = target: T1, 5-hydroxytryptamine receptor 7; assay: Antagonist activity at human 5-HT7 receptor expressed in CHO-K1 cells assessed as inhibition of serotonin-induced cAMP accumulation after 60 mins by TR-FRET immunoassay; assay type: functional, cell-based
[35] = target: T4, 5-hydroxytryptamine receptor 2A; assay: Antagonist activity at human recombinant 5-HT2A receptor expressed in CHO-K1 cells assessed as inhibition of alpha-methyl serotonin-induced response treated 15 to 30 mins before agonist challenge by luminescence analysis; assay type: cell-based
[36] = target: T5, Muscarinic acetylcholine receptor M3; assay: biochemical
D(4) dopamine receptor = D(4) dopamine receptor (Homo sapiens, UniProt P21917); assay: Displacement of [3H]methylspiperone from human recombinant D4 receptor expressed in CHO cells; assay type: cell-based
[37] = target: 5-hydroxytryptamine receptor 2C (Homo sapiens, UniProt P28335); assay: biochemical
Sequence of 5-hydroxytryptamine receptor 2C (P28335 whole entry): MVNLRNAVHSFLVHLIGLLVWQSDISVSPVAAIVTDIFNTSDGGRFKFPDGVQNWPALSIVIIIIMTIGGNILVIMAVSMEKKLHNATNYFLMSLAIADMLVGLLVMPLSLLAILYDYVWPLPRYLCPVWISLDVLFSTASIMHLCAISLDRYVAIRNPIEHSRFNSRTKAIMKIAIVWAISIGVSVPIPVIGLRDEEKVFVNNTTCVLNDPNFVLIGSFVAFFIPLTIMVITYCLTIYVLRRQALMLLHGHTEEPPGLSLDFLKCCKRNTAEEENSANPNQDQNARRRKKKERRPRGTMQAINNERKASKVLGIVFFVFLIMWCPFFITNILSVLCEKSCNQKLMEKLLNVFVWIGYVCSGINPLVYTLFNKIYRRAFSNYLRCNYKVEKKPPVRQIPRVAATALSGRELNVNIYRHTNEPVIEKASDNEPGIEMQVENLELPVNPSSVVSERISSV

D(2) dopamine receptor [38] = target: T3, D(2) dopamine receptor; assay: biochemical; remark: listed apart in the source
[39] = target: hERG (KCNH2) potassium channel (Homo sapiens, UniProt Q12809); assay: in vitro; conditions: CHO cells expressing human cloned ERG
Sequence of hERG (KCNH2) potassium channel (Q12809 whole entry): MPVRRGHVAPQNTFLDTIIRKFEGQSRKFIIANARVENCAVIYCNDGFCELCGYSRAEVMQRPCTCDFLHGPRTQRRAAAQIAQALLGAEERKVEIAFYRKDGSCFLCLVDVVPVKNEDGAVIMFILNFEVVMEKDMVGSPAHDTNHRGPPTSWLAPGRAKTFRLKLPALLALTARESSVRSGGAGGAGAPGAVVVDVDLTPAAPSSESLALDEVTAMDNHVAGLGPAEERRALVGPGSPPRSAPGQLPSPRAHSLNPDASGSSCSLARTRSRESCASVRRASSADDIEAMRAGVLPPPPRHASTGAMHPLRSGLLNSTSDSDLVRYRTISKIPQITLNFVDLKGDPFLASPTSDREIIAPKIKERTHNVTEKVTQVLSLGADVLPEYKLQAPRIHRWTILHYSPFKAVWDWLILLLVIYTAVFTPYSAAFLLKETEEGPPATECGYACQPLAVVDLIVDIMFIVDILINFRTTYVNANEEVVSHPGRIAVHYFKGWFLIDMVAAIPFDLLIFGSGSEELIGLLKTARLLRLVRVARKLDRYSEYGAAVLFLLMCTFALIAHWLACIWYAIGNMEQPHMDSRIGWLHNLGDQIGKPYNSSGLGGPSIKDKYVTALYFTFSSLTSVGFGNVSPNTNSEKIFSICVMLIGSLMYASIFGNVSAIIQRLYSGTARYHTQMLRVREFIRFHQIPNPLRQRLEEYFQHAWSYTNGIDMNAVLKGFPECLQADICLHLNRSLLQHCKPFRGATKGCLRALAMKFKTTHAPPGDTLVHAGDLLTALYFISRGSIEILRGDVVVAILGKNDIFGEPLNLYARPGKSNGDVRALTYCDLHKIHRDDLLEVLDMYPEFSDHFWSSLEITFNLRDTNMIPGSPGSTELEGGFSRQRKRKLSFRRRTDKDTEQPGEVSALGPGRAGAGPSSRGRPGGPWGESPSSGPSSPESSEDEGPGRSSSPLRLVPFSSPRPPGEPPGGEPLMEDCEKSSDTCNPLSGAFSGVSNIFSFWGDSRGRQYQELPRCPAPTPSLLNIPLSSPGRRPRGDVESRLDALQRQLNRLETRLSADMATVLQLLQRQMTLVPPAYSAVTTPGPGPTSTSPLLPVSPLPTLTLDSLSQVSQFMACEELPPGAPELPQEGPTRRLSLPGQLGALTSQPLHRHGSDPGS

O=S(=O)(NCCCCN1CCC(c2noc3cc(F)ccc23)CC1)c1cc2ccccc2s1
Kb [1]: 1.8 nM
Ki [2]: 1.9 nM
Activity [3]: inactive
IC50 [4]: > 1000 nM
Activity (Rattus norvegicus [5]): Non-toxic
Ki [6]: > 1000 nM
Ki [7]: 4.1 nM
Ki [8]: 1.6 nM
Ki (D(3) dopamine receptor): 1.1 nM
Kb [9]: 16 nM
Activity (Rattus norvegicus [10]): Non-toxic
Ki [11]: 110 nM
Activity (D(2) dopamine receptor [12]): inactive
Ki (Histamine H1 receptor): 69 nM
Ki [13]: > 1000 nM
minimal effective dose (Rattus norvegicus [14]): 10 mg/kg
inhibition (INH) (Rattus norvegicus [15]): 20%
Activity [16]: inactive
inhibition [17]: < 40%
Ki [18]: 0.5 nM
Ki [19]: 1.9 nM
minimal effective dose (Rattus norvegicus [20]): 3 mg/kg
Kb [21]: 9.9 nM
Ki [22]: 0.8 nM
Ki (D(2) dopamine receptor [23]): 1.8 nM
inhibition [24]: < 40%
Kb [25]: 4.8 nM
Activity [26]: inactive
inhibition [27]: < 40%
Ki [28]: > 1000 nM
inhibition [29]: 21%
Ki [30]: > 1000 nM
Ki [31]: 0.6 nM
inhibition [32]: < 40%
Ki (D(1A) dopamine receptor): 3.3 nM
Ki [33]: 6.5 nM
Kb [34]: 7.8 nM
Kb [35]: 8.8 nM
Ki [36]: > 1000 nM
Ki (D(4) dopamine receptor): 14 nM
Ki [37]: 540 nM
Ki (D(2) dopamine receptor [38]): 2 nM

C[N+]1(C)CCC(OC(=O)C(c2ccccc2)c2ccccc2)CC1 [4-DAMP]
Ki [6]: 0.48 nM

COc1cc(OC)c(C(=O)CCCCN2CCC3(CC2)NC(=O)NC3=O)cc1NS(=O)(=O)c1ccc(C(F)(F)F)cc1 [RS-102,221]
Ki [37]: 0.6 nM

O=S(=O)(NCCCCN1CCC(c2noc3cc(F)ccc23)CC1)c1cccc2ccccc12
Activity [3]: inactive
Ki [8]: 0.8 nM
Activity (D(2) dopamine receptor [12]): inactive
Activity [16]: inactive
inhibition at 1 µM [39]: 24%
Kb [21]: 17 nM
Activity [26]: inactive
inhibition [29]: 0%
Ki [31]: 0.6 nM
Ki [33]: 8.8 nM
Kb [34]: 3 nM
Kb [35]: 76 nM
Ki (D(2) dopamine receptor [38]): 3 nM

Cc1c(S(=O)(=O)NCCCCN2CCC(c3noc4cc(F)ccc34)CC2)sc2ccc(F)cc12
Activity [3]: inactive
Ki [8]: 0.2 nM
Activity (D(2) dopamine receptor [12]): inactive
Activity [16]: inactive
inhibition at 1 µM [39]: 14%
Kb [21]: 14 nM
Activity [26]: inactive
inhibition [29]: 22%
Ki [31]: 0.7 nM
Ki [33]: 3.4 nM
Kb [34]: 2.2 nM
Kb [35]: 5 nM
Ki (D(2) dopamine receptor [38]): 1.9 nM
